Assay [1] has as its target T1, human GRP receptor (BB2) (Homo sapiens, UniProt P30550).
T1 construct: expressed in transfected cells; membranes prepared from the cells
As to the kind of experiment: BB2 binding assay ([125I][Tyr4]bombesin displacement, CHO-K1 membranes). How it is done: In the following experiments, measurement of BB1 and BB2 binding was as follows. CHO-K1 cells stably expressing cloned human NMB (for (BB1 assay) and GRP receptors (for BB2 assay) were routinely grown in Ham's F12 culture medium supplemented with 10% foetal calf serum and 2 mM glutamine. For binding experiments, cells were harvested by trypsinization, and stored frozen at −70° C. in Ham's F12 culture medium containing 5% DMSO until required. On the day of use, cells were thawed rapidly, diluted with an excess of culture medium, and centrifuged for 5 minutes at 2000 g. Cells were resuspended in 50 mM Tris-HCl assay buffer (pH 7.4 at 21° C., containing 0.02% BSA, 40 μg/mL bacitracin, 2 μg/mL chymostatin, 4 μg/mL leupeptin, and 2 μM phosphoramidon), counted, and polytronned (setting 5, 10 sec) before centrifuging for 10 minutes at 28,000 g. The final pellet was resuspended in assay buffer to a final cell concentration of 1.5×10^5/mL. For binding assays, […] aliquots of membranes were incubated with [^125I][Tyr^4]bombesin (<0.1 nM) in the presence and absence of test compounds (final assay volume 250 μL) for 60 minutes and 90 minutes for NMB and GRP receptors, respectively. Nonspecific binding was defined by 1 μM bombesin. Assays were terminated by rapid filtration under vacuum onto Whatman GF/C filters presoaked in 0.2% PEI for >2 hours, and washed 50 mM Tris-HCl (pH 6.9 at 21° C.; 6×1 mL). Radioactivity bound was determined using a gamma counter.
All competition data was analysed using nonlinear regression utilizing iterative curve-plotting procedures in Prism® (GraphPad Software Inc., San Diego, USA). IC50 values were corrected to Ki values using the Cheng-Prusoff equation (Cheng Y., Prusoff W. H., Biochem. Pharmacol. 22: 3099-3108, 1973). obtained are listed in Table 1.

The target in assay [2] is T2, human NMB receptor (BB1) (Homo sapiens, UniProt P28336).
T2 construct: expressed in transfected cells; membranes prepared from the cells
T2 sequence (P28336 whole entry): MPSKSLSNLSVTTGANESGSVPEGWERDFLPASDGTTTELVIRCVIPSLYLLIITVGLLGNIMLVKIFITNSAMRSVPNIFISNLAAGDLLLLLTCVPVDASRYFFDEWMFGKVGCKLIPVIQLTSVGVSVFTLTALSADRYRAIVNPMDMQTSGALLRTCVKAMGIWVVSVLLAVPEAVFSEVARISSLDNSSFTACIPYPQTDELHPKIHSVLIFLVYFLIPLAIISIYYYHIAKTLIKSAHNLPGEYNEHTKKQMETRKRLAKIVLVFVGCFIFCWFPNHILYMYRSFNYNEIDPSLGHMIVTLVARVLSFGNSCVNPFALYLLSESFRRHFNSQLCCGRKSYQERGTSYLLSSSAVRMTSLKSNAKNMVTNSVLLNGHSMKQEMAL
As to the kind of experiment: BB1 binding assay ([125I][Tyr4]bombesin displacement, CHO-K1 membranes). In outline: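 Competition against <0.1 nM [125I][Tyr4]bombesin, 60 min for the NMB receptor and 90 min for the GRP receptor, using homogenised membranes of human-receptor-expressing CHO-K1 cells in pH 7.4 Tris buffer. Bound label was filtered and gamma-counted, with 1 μM bombesin as nonspecific. Ki values came from IC50 via Cheng-Prusoff.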

The mark [3] stands for this setting: Table 3, N-acyl derivatives of Intermediate III-7.
Where [4] appears, read: second 'TABLE 4', N-terminal urethane derivatives of Intermediate III-7.

Data on 21 compounds can be found in patent US20020169101A1, “Treatment of sexual dysfunction” (priority 1999, published 2002).

Read-outs that look alike come from different tables or passages of the source.

T1 sequence (P30550 whole entry): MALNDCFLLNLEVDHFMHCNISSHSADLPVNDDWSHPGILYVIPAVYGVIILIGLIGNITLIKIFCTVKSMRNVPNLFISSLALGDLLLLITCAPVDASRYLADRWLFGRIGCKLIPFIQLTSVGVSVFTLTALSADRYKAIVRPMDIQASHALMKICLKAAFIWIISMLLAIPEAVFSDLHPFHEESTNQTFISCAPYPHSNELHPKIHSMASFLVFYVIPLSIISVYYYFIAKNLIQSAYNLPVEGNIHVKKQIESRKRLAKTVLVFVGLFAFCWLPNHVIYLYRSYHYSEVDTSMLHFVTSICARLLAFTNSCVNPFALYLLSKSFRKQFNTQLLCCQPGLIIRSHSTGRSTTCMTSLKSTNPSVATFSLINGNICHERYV

As a reminder, the IC50 is the concentration at which inhibition is half-maximal. On to `C[C@@](Cc1c[nH]c2ccccc12)(NC(=O)c1ccccc1F)C(=O)NCC1(c2ccccn2)CCCCC1` [Example 49, 2-Fluoro-N—{(S)-2-(1H-indol-3-yl)-1-methyl-1-[(1-pyridin-2-yl-cyclohexylmethyl)-carbamoyl]-ethyl}-benzamide], for which the IC50 in assay [1] (setting [3]) is greater than 10 µM; in assay [2] (setting [3]) it was 3.95 µM.
Turning to `C[C@@](Cc1c[nH]c2ccccc12)(NC(=O)OCc1ccc2ccccc2c1)C(=O)NCC1(c2ccccn2)CCCCC1` [Example 89, {(S)-2-(1H-Indol-3-yl)-1-methyl-1-[(1-pyridin-2-yl-cyclohexylmethyl)-carbamoyl]-ethyl}-carbamic acid naphthalen-2-ylmethyl ester], the results for the IC50 in assay [1] (setting [4]) and in assay [2] (setting [4]) were greater than 10 µM and 1 µM, respectively.
Regarding `Cc1ccc(C(=O)N[C@@](C)(Cc2c[nH]c3ccccc23)C(=O)NCC2(c3ccccn3)CCCCC2)s1` [Example 75, 5-Methyl-thiophene-2-carboxylic acid {(S)-2-(1H-indol-3-yl)-1-methyl-1-[(1-pyridin-2-yl-cyclohexylmethyl)-carbamoyl]-ethyl}-amide], the IC50 in assay [1] (setting [3]) is greater than 10 µM; in assay [2] (setting [3]) it was 1.66 µM.
As for `C[C@@](Cc1c[nH]c2ccccc12)(NS(=O)(=O)c1ccccc1Cl)C(=O)NCC1(c2ccccn2)CCCCC1` [Example 113, (S)-2-(2-chloro-benzenesulfonylamino)-3-(1H-indol-3-yl)-2-methyl-N-(1-pyridin-2-yl-cyclohexylmethyl)-propionamide], the IC50 in assay [1] is greater than 10 µM; in assay [2] it was 0.257 µM.
For the compound `CCOc1cccc(COC(=O)N[C@@](C)(Cc2c[nH]c3ccccc23)C(=O)NCC2(c3ccccn3)CCCCC2)c1` [Example 102, {(S)-2-(1H-Indol-3-yl)-1-methyl-1-[(1-pyridin-2-yl-cyclohexylmethyl)-carbamoyl]-ethyl}-carbamic acid 3-ethoxy-benzyl ester], the half-inhibitory concentration (IC50) is greater than 10 µM in assay [1] (setting [4]) and 1.06 µM in assay [2] (setting [4]).
As for `C[C@@](Cc1c[nH]c2ccccc12)(NC(=O)c1ccccc1Cl)C(=O)NCC1(c2ccccn2)CCCCC1` [Example 44, 2-Chloro-N—{(S)-2-(1H-indol-3-yl)-1-methyl-1-[(1-pyridin-2-yl-cyclohexyl-methyl)-carbamoyl]-ethyl}-benzamide], the IC50 in assay [1] (setting [3]) was greater than 10 µM; in assay [2] (setting [3]), 3.23 µM.
As for `C[C@@](Cc1c[nH]c2ccccc12)(NC(=O)OCc1cccc(Oc2ccccc2)c1)C(=O)NCC1(c2ccccn2)CCCCC1` [Example 106, {(S)-2-(1H-Indol-3-yl)-1-methyl-1-[(1-pyridin-2-yl-cyclohexylmethyl)-carbamoyl]-ethyl}-carbamic acid 3-phenoxy-benzyl ester], the IC50 was greater than 10 µM in assay [1] (setting [4]) and 1.35 µM in assay [2] (setting [4]).
Regarding `C[C@@](Cc1c[nH]c2ccccc12)(NS(=O)(=O)c1ccccc1-c1ccccc1)C(=O)NCC1(c2ccccn2)CCCCC1` [Example 154, (S)-2-(biphenyl-2-sulfonylamino)-3-(1H-indol-3-yl)-2-methyl-N-(1-pyridin-2-yl-cyclohexylmethyl)-propionamide], the values for the IC50 in assay [1] and in assay [2] were greater than 10 µM and 0.166 µM, respectively.
With `C[C@@](Cc1c[nH]c2ccccc12)(NC(=O)OCc1ccccc1Cl)C(=O)NCC1(c2ccccn2)CCCCC1` [Example 95, {(S)-2-(1H-Indol-3-yl)-1-methyl-1-[(1-pyridin-2-yl-cyclohexylmethyl)-carbamoyl]-ethyl}-carbamic acid 2-chloro-benzyl ester], the IC50 in assay [1] (setting [4]) is greater than 10 µM; in assay [2] (setting [4]) it was 0.624 µM.
On the same counts, the results for `C[C@@](Cc1c[nH]c2ccccc12)(NC(=O)OC1Cc2ccccc2C1)C(=O)NCC1(c2ccccn2)CCCCC1` [Example 90, {(S)-2-(1H-Indol-3-yl)-1-methyl-1-[(1-pyridin-2-yl-cyclohexylmethyl)-carbamoyl]-ethyl}-carbamic acid indan-2-yl ester] are greater than 10 µM and 0.955 µM.
For `C[C@@](Cc1c[nH]c2ccccc12)(NC(=O)OCc1ccc(Cl)c(Cl)c1)C(=O)NCC1(c2ccccn2)CCCCC1` [Example 91, {(S)-2-(1H-Indol-3-yl)-1-methyl-1-[(1-pyridin-2-yl-cyclohexylmethyl)-carbamoyl]-ethyl}-carbamic acid 3,4-dichloro-benzyl ester], in that order: greater than 10 µM and 0.202 µM.
With `C[C@@](Cc1c[nH]c2ccccc12)(NS(=O)(=O)Cc1ccccc1)C(=O)NCC1(c2ccccn2)CCCCC1` [Example 111, (S)-3-(1H-indol-3-yl)-2-methyl-2-phenylmethanesulfonylamino-N-(1-pyridin-2-yl-cyclohexylmethyl)-propionamide], the IC50 in assay [1] is greater than 10 µM; in assay [2] it was 0.186 µM.
On to `C[C@@](Cc1c[nH]c2ccccc12)(NC(=O)c1cc2ccccc2s1)C(=O)NCC1(c2ccccn2)CCCCC1` [Example 71, Benzo[b]thiophene-2-carboxylic acid {(S)-2-(1H-indol-3-yl)-1-methyl-1-[(1-pyridin-2-yl-cyclohexylmethyl)-carbamoyl]-ethyl}-amide], for which the IC50 is greater than 10 µM in assay [1] (setting [3]) and 0.611 µM in assay [2] (setting [3]).
For `Cn1c(C(=O)N[C@@](C)(Cc2c[nH]c3ccccc23)C(=O)NCC2(c3ccccn3)CCCCC2)cc2ccccc21` [Example 70, 1-Methyl-1H-indole-2-carboxylic acid {(S)-2-(1H-indol-3-yl)-1-methyl-1-[(1-pyridin-2-yl-cyclohexylmethyl)-carbamoyl]-ethyl}-amide], the IC50 is greater than 10 µM in assay [1] (setting [3]) and 1.23 µM in assay [2] (setting [3]).
For `C[C@@](Cc1c[nH]c2ccccc12)(NC(=O)c1cc2ccccc2[nH]1)C(=O)NCC1(c2ccccn2)CCCCC1` [Example 61, 1H-Indole-2-carboxylic acid {(S)-2-(1H-indol-3-yl)-1-methyl-1-[(1-pyridin-2-yl-cyclohexylmethyl)-carbamoyl]-ethyl}-amide], in that order: 0.527 µM and 0.289 µM.
Take `C[C@@](Cc1c[nH]c2ccccc12)(NC(=O)c1cccc(S(C)(=O)=O)c1)C(=O)NCC1(c2ccccn2)CCCCC1` [Example 41, N—{(S)-2-(1H-Indol-3-yl)-1-methyl-1-[(1-pyridin-2-yl-cyclohexylmethyl)-carbamoyl]-ethyl}-3-methanesulfonyl-benzamide]: the values for the IC50 in assay [1] (setting [3]) and in assay [2] (setting [3]) were greater than 10 µM and 3.05 µM, respectively.
As for `COc1cccc(C(=O)N[C@@](C)(Cc2c[nH]c3ccccc23)C(=O)NCC2(c3ccccn3)CCCCC2)c1` [Example 40, N—{(S)-2-(1H-Indol-3-yl)-1-methyl-1-[(1-pyridin-2-yl-cyclohexylmethyl)-carbamoyl]-ethyl}-3-methoxy-benzamide], the results for the half-inhibitory concentration (IC50) in assay [1] (setting [3]) and in assay [2] (setting [3]) were greater than 10 µM and 2.86 µM, respectively.
Turning to `C[C@@](Cc1c[nH]c2ccccc12)(NC(=O)OCc1cccc2ccccc12)C(=O)NCC1(c2ccccn2)CCCCC1` [Example 87, {(S)-2-(1H-Indol-3-yl)-1-methyl-1-[(1-pyridin-2-yl-cyclohexylmethyl)-carbamoyl]-ethyl}-carbamic acid naphthalen-1-ylmethyl ester], the IC50 is greater than 10 µM in assay [1] (setting [4]) and 0.239 µM in assay [2] (setting [4]).
Take `C[C@@](Cc1c[nH]c2ccccc12)(NCCc1ccccc1)C(=O)NCC1(c2ccccn2)CCCCC1` [Example 25, (S)-3-(1H-Indol-3-yl)-2-methyl-2-phenylethylamino-N-(1-pyridin-2-yl-cyclohexylmethyl)-propionamide]: the Ki was found to be 2.62 µM in assay [1] (Table 1, human GRP receptor binding affinity, Ki from IC50 by Cheng-Prusoff, read-out: GRP Kj) and 0.616 µM in assay [2] (Table 1, human NMB receptor binding affinity, Ki from IC50 by Cheng-Prusoff, read-out: NMB Ki).
For `C[C@@](Cc1c[nH]c2ccccc12)(NC(=O)Cc1ccccc1F)C(=O)NCC1(c2ccccn2)CCCCC1` [Example 55, (S)-2-[2-(2-Fluoro-phenyl)-ethanoylamino]-3-(1H-indol-3-yl)-2-methyl-N-(1-pyridin-2-yl-cyclohexylmethyl)-propionamide], the results for the half-inhibitory concentration (IC50) in assay [1] (setting [3]) and in assay [2] (setting [3]) were 1.55 µM and 0.878 µM, respectively.
As to `COc1ccc(COC(=O)N[C@@](C)(Cc2c[nH]c3ccccc23)C(=O)NCC2(c3ccccn3)CCCCC2)cc1` [Example 92, {(S)-2-(1H-Indol-3-yl)-1-methyl-1-[(1-pyridin-2-yl-cyclohexylmethyl)-carbamoyl]-ethyl}-carbamic acid 4-methoxy-benzyl ester], the IC50 was greater than 10 µM in assay [1] (setting [4]) and 1.61 µM in assay [2] (setting [4]).
